This note sets out measurements from patent US8916183B2, “Pesticidal compositions and processes related thereto” (priority 2012, dated 2014).

Holding throughout (format): in vivo
Test [1] deals with Corn Earworm (CEW) (Helicoverpa zea). Put plainly: Bioassay on corn earworm (CEW), 128-well diet tray assay. Particulars: Helicoverpa zea; corn earworm, 50 μg/cm^2; read-out: % Mortality CEW 50 μg/cm^2. A digest of the protocol:
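Activity was scored as percent larval mortality per well, averaged across eight wells and reported on a rating scale. Diet trays (128-well) were kept at 25° C with 14:10 light-dark for five to seven days.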

Test [2] deals with Beet Armyworm (BAW) (Spodoptera exigua). The test is described as follows: Bioassay on beet armyworm (BAW), 128-well diet tray assay. Particulars: Spodoptera exigua; beet armyworm, 50 μg/cm^2; read-out: % Mortality BAW 50 μg/cm^2.
In test [3] the test system is Green Peach Aphid (GPA) (Myzus persicae). Put plainly: Bioassay on green peach aphid (GPA), foliar spray on cabbage seedlings. As to conditions: green peach aphid, 200 ppm, read-out: % Mortality GPA 200 ppm. A digest of the protocol: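 Cabbage seedlings (2-3 true leaves), each infested a day earlier with 20-50 wingless adult and nymph GPA, were sprayed on both leaf sides to runoff, four pots per treatment. Corrected % control was calculated against solvent-check plants.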

Regarding `Cc1cccnc1N1C(=O)CS/C1=N\N=C\c1ccc(-c2ncn(-c3ccc(OC(F)(F)F)cc3)n2)cc1` [Compound 117C], the mortality at 50 µg/cm2 in test [1] and in test [2] was 50 to 100% throughout. Further, the mortality at 200 ppm in test [3] was 0%.
As to `Cc1cnccc1N1C(=O)CS/C1=N\N=C\c1ccc(-c2ncn(-c3ccc(OC(F)(F)F)cc3)n2)cc1` [Compound 118C], the mortality at 50 µg/cm2 in test [1] and in test [2] was 50 to 100% each time. In test [3], the mortality at 200 ppm came to 0%.
As for `CC(C)Cc1ccccc1N1C(=O)CS/C1=N\N=C\c1ccc(-c2ncn(-c3ccc(OC(F)(F)F)cc3)n2)cc1` [Compound 119C], the mortality at 50 µg/cm2 in test [1] and in test [2] was 50 to 100% throughout. The mortality at 200 ppm in test [3] is 0%.
`CC(C)=Cc1ccccc1N1C(=O)CS/C1=N\N=C\c1ccc(-c2ncn(-c3ccc(OC(F)(F)F)cc3)n2)cc1` [Compound 121C]: the mortality at 50 µg/cm2 in test [1] and in test [2] was 50 to 100% throughout. Besides, the mortality at 200 ppm in test [3] was in the range of 0 to 80%.
`CC1S/C(=N\N=C\c2ccc(-c3ncn(-c4ccc(OC(F)(F)F)cc4)n3)cc2)N(c2c(F)cccc2F)C1=O` (stereo not drawn) [Compound 131C]: the mortality at 50 µg/cm2 in test [1] and in test [2] was 50 to 100% throughout. The mortality at 200 ppm in test [3] came out at 0%.
Turning to `CC(C)c1ccccc1N1CCS/C1=N\N=C\c1ccc(-c2ncn(-c3ccc(OC(F)(F)F)cc3)n2)cc1` [Compound 132C], the mortality at 50 µg/cm2 in test [1] and in test [2] was 50 to 100% throughout. Further, the mortality at 200 ppm in test [3] was 0 to 80%.
In the case of `CCc1ccccc1N1CCS/C1=N\N=C\c1ccc(-c2ncn(-c3ccc(OC(F)(F)F)cc3)n2)cc1` [Compound 133C], the mortality at 50 µg/cm2 in test [1] and in test [2] was 50 to 100% throughout. Moreover, in test [3], the mortality at 200 ppm fell in the range of 0 to 80%.
Regarding `CCC(C)c1ccccc1N1CCS/C1=N\N=C\c1ccc(-c2ncn(-c3ccc(OC(F)(F)F)cc3)n2)cc1` (stereo not drawn) [Compound 135C], the mortality at 50 µg/cm2 in test [1] and in test [2] was 50 to 100% throughout. The mortality at 200 ppm in test [3] worked out at 0%.
Turning to `CCc1cccc(C)c1N1CCS/C1=N\N=C\c1ccc(-c2ncn(-c3ccc(OC(F)(F)F)cc3)n2)cc1` [Compound 136C], the mortality at 50 µg/cm2 in test [1] and in test [2] was 50 to 100% in each case. Moreover, in test [3], the mortality at 200 ppm worked out at 0%.
On to `COc1ccc(N2CCS/C2=N\N=C\c2ccc(-c3ncn(-c4ccc(OC(F)(F)F)cc4)n3)cc2)c(C)c1` [Compound 137C], for which the mortality at 50 µg/cm2 in test [1] and in test [2] was 50 to 100% throughout. Besides, in test [3], the mortality at 200 ppm is 0%.
With `COc1cc(C)c(N2CCS/C2=N\N=C\c2ccc(-c3ncn(-c4ccc(OC(F)(F)F)cc4)n3)cc2)c(C)c1` [Compound 138C], the mortality at 50 µg/cm2 in test [1] and in test [2] was 50 to 100% in each case. Moreover, in test [3], the mortality at 200 ppm lay in the range of 0 to 80%.
As to `Cc1cc(C)c(N2CCS/C2=N\N=C\c2ccc(-c3ncn(-c4ccc(OC(F)(F)F)cc4)n3)cc2)c(C)c1` [Compound 139C], the mortality at 50 µg/cm2 in test [1] and in test [2] was 50 to 100% throughout. For the same compound, the mortality at 200 ppm in test [3] is 0 to 80%.
For `COc1ccccc1N1CCS/C1=N\N=C\c1ccc(-c2ncn(-c3ccc(OC(F)(F)F)cc3)n2)cc1` [Compound 140C], the mortality at 50 µg/cm2 in test [1] and in test [2] was 50 to 100% throughout. Also, the mortality at 200 ppm in test [3] was 0 to 80%.
Consider `Cc1ccccc1N1CCS/C1=N\N=C\c1ccc(-c2ncn(-c3ccc(OC(F)(F)F)cc3)n2)cc1` [Compound 141C], for which the mortality at 50 µg/cm2 in test [1] and in test [2] was 50 to 100% each time. In test [3], the mortality at 200 ppm is 0%.
In the case of `Cc1cccc(C)c1N1CCS/C1=N\N=C\c1ccc(-c2ncn(-c3ccc(OC(F)(F)F)cc3)n2)cc1` [Compound 142C], the mortality at 50 µg/cm2 in test [1] and in test [2] was 50 to 100% each time. Besides, the mortality at 200 ppm in test [3] turned out to be 0%.
Consider `FC(F)(F)Oc1ccc(-n2cnc(-c3ccc(/C=N/N=C4\SCCN4c4ccccc4C4CC4)cc3)n2)cc1` [Compound 145C], for which the mortality at 50 µg/cm2 in test [1] and in test [2] was 50 to 100% throughout. Besides, the mortality at 200 ppm in test [3] was in the range of 0 to 80%.
As for `CCOc1ccccc1N1CCS/C1=N\N=C\c1ccc(-c2ncn(-c3ccc(OC(F)(F)F)cc3)n2)cc1` [Compound 146C], the mortality at 50 µg/cm2 in test [1] and in test [2] was 50 to 100% each time. Also, in test [3], the mortality at 200 ppm is 0 to 80%.
For `COc1cccc(N2CCS/C2=N\N=C\c2ccc(-c3ncn(-c4ccc(OC(F)(F)F)cc4)n3)cc2)c1` [Compound 147C], the mortality at 50 µg/cm2 in test [1] and in test [2] was 50 to 100% in each case. Further, the mortality at 200 ppm in test [3] was in the range of 0 to 80%.
Consider `FC(F)(F)Oc1ccc(-n2cnc(-c3ccc(/C=N/N=C4\SCCN4c4c(Cl)cccc4C(F)(F)F)cc3)n2)cc1` [Compound 149C], for which the mortality at 50 µg/cm2 in test [1] and in test [2] was 50 to 100% in each case. In addition, the mortality at 200 ppm in test [3] stood at 0%.
As to `CC(C)Cc1ccccc1N1CCS/C1=N\N=C\c1ccc(-c2ncn(-c3ccc(OC(F)(F)F)cc3)n2)cc1` [Compound 150C], the mortality at 50 µg/cm2 in test [1] and in test [2] was 50 to 100% in each case. The mortality at 200 ppm in test [3] is 0%.
In the case of `CC(C)=Cc1ccccc1N1CCS/C1=N\N=C\c1ccc(-c2ncn(-c3ccc(OC(F)(F)F)cc3)n2)cc1` [Compound 151C], the mortality at 50 µg/cm2 in test [1] and in test [2] was 50 to 100% throughout. Further, the mortality at 200 ppm in test [3] lay in the range of 0 to 80%.
For the compound `Cc1ccccc1N1/C(=N/N=C/c2ccc(-c3ncn(-c4ccc(OC(F)(F)F)cc4)n3)cc2)SCC1C` (stereo not drawn) [Compound 154C], the mortality at 50 µg/cm2 in test [1] and in test [2] was 50 to 100% throughout. The mortality at 200 ppm in test [3] fell in the range of 0 to 80%.
With `CCc1cccc(C)c1N1/C(=N/N=C/c2ccc(-c3ncn(-c4ccc(OC(F)(F)F)cc4)n3)cc2)SCC1C` (stereo not drawn) [Compound 156C], the mortality at 50 µg/cm2 in test [1] and in test [2] was 50 to 100% in each case. The mortality at 200 ppm in test [3] is 0 to 80%.
For the compound `CC1CS/C(=N\N=C\c2ccc(-c3ncn(-c4ccc(OC(F)(F)F)cc4)n3)cc2)N1c1c(Cl)cccc1Cl` (stereo not drawn) [Compound 157C], the mortality at 50 µg/cm2 in test [1] and in test [2] was 50 to 100% in each case. In addition, in test [3], the mortality at 200 ppm lay in the range of 0 to 80%.
As for `Cc1cccc(Cl)c1N1/C(=N/N=C/c2ccc(-c3ncn(-c4ccc(OC(F)(F)F)cc4)n3)cc2)SCC1C` (stereo not drawn) [Compound 158C], the mortality at 50 µg/cm2 in test [1] and in test [2] was 50 to 100% each time. Moreover, the mortality at 200 ppm in test [3] lay within 0 to 80%.
With `CC1CS/C(=N\N=C\c2ccc(-c3ncn(-c4ccc(OC(F)(F)F)cc4)n3)cc2)N1c1ccccc1OC(F)(F)F` (stereo not drawn) [Compound 168C], the mortality at 50 µg/cm2 in test [1] and in test [2] was 50 to 100% in each case. For the same compound, the mortality at 200 ppm in test [3] was determined as 0%.
Take `COc1cc(C)c(-n2c(C)cs/c2=N\N=C\c2ccc(-c3ncn(-c4ccc(OC(F)(F)F)cc4)n3)cc2)c(C)c1` [Compound 172C]: the mortality at 50 µg/cm2 in test [1] and in test [2] was 50 to 100% in each case. Further, the mortality at 200 ppm in test [3] stood at 0%.
As for `Cc1ccccc1-n1c(C)cs/c1=N\N=C\c1ccc(-c2ncn(-c3ccc(OC(F)(F)F)cc3)n2)cc1` [Compound 173C], the mortality at 50 µg/cm2 in test [1] and in test [2] was 50 to 100% in each case. Also, in test [3], the mortality at 200 ppm was 0%.
On to `Cc1cccc(Cl)c1-n1c(C)cs/c1=N\N=C\c1ccc(-c2ncn(-c3ccc(OC(F)(F)F)cc3)n2)cc1` [Compound 174C], for which the mortality at 50 µg/cm2 in test [1] and in test [2] was 50 to 100% in each case. Also, the mortality at 200 ppm in test [3] lay within 0 to 80%.
With `Cc1cccc(C)c1-n1c(C)cs/c1=N\N=C\c1ccc(-c2ncn(-c3ccc(OC(F)(F)F)cc3)n2)cc1` [Compound 175C], the mortality at 50 µg/cm2 in test [1] and in test [2] was 50 to 100% each time. In addition, in test [3], the mortality at 200 ppm was 0%.
`CC(C)c1ccccc1N1CCCS/C1=N\N=C\c1ccc(-c2ncn(-c3ccc(OC(F)(F)F)cc3)n2)cc1` [Compound 177C]: the mortality at 50 µg/cm2 in test [1] and in test [2] was 50 to 100% each time. In addition, the mortality at 200 ppm in test [3] was determined as 0%.
For the compound `CC(C)c1ccccc1N1CCCS/C1=N\N=C\c1ccc(-c2ncn(-c3ccc(C(F)(F)F)cc3)n2)cc1` [Compound 179C], the mortality at 50 µg/cm2 in test [1] and in test [2] was 50 to 100% in each case. Further, the mortality at 200 ppm in test [3] turned out to be 0%.
With `CCc1cccc(C)c1N1CCCS/C1=N\N=C\c1ccc(-c2ncn(-c3ccc(OC(F)(F)F)cc3)n2)cc1` [Compound 180C], the mortality at 50 µg/cm2 in test [1] and in test [2] was 50 to 100% in each case. Also, in test [3], the mortality at 200 ppm fell in the range of 0 to 80%.
With `COc1cc(C)c(N2CCCS/C2=N\N=C\c2ccc(-c3ncn(-c4ccc(OC(F)(F)F)cc4)n3)cc2)c(C)c1` [Compound 181C], the mortality at 50 µg/cm2 in test [1] and in test [2] was 50 to 100% in each case. The mortality at 200 ppm in test [3] was in the range of 0 to 80%.
For `Cc1cccc(C)c1N1CCCS/C1=N\N=C\c1ccc(-c2ncn(-c3ccc(OC(F)(F)F)cc3)n2)cc1` [Compound 182C], the mortality at 50 µg/cm2 in test [1] and in test [2] was 50 to 100% in each case. Further, the mortality at 200 ppm in test [3] was in the range of 0 to 80%.
Consider `CCC(C)c1ccccc1N1CCCS/C1=N\N=C\c1ccc(-c2ncn(-c3ccc(OC(F)(F)F)cc3)n2)cc1` (stereo not drawn) [Compound 183C], for which the mortality at 50 µg/cm2 in test [1] and in test [2] was 50 to 100% in each case. For the same compound, the mortality at 200 ppm in test [3] was 0%.
